The values that follow are results of earlier work, collected in US4771122A, “Novel cyclosporins” (Sandoz Ltd., priority 1985, dated 1988).

The conditions of this data set: reported in literature.

Take [(D)Pro]^3 -Cyclosporine: the immunosuppressive activity result was “substantially lacking in immunosuppressive activity”.
